For the test, the target named is MCH receptor (Homo sapiens, UniProt Q99705). The test is described as follows: High throughput functional screening FLIPR/FDSS6000: inhibition of MCH-evoked intracellular Ca2+ changes. It is filed as cell-based. As to conditions: read-out: class. From the text:
Subsequently, a functional based assay was used to confirm the lead hits, referred to as FLIPR™ (the Fluorometric Imaging Plate Reader) and FDSS6000™ (Functional Drug Screening System). This assay utilized 3 non-endozenous, constitutively active version of the MCH receptor.
The FLIPR and FDSS assays are able to detect intracellular Ca^2+ concentration in cells, which can be utilized to assess receptor activation and determine whether a candidate compound is an, for example, antagonist, inverse agonist or agonist to a Gq-coupled receptor. The concentration of free Ca^2+ in the cytosol of any cell is extremely low, whereas its concentration in the extracellular fluid and endoplasmic reticulum (ER) is very high. Thus, there is a large gradient tending to drive Ca^2+ into the cytosol across both the plasma membrane and ER. The FLIPR™ and FDSS6000™ systems (Molecular Devices Corporation, HAMAMATSU Photonics K.K.) are designed to perform functional cell-based assays, such as the measurement of intracellular calcium for high-throughput screening, The measurement of fluorescent is associated with calcium release upon activation of the Gq-coupled receptors.
Fluorometric Imaging Plate Reader system was used to allow for rapid, kinetic measurements of intracellular fluorescence in 96 well microplates (or 384 well microplates). Simultaneous measurements of fluorescence in all wells can be made by FLIPR or FDSS6000™ every second with high sensitivity and precision. These systems are ideal for measuring cell-based functional assays such as monitoring the intracellular calcium fluxes that occur within seconds after activation of the Gq coupled receptor.
Briefly, the cells are seeded into 96 well at 5.5×10^4 cells/well with complete culture media (Dulbecco's Modified Eagle Medium with 10% fetal bovine serum, 2 mMi L-glutamine, 1 mM sodium pyruvate and 0.5 mg/ml G418, pH 7.4) for the assay next day. On the day of assay, the media is removed and the cells are incubated with 100 μl of loading buffer (4 μM Fluo4-AM in complete culture media containing 2.5 mM Probenicid, 0.5 mg/ml and 0.2% bovine serum albumin) in 5% CO2 incubator at 37° C. for 1 hr. The loading buffer is removed, and the cells are washed with wash buffer (Hank's Balanced Salt Solution containing 2.5 mM Probenicid, 20 mM HEPES, 0.5 mg/ml and 0.2% bovine serum albumm, pH 7.4)). One hundred fifty μl of wash buffer containing various concentrations of test compound is added to the cells, and the cells are incubated in 5% CO2 incubator at 37° C. for 3 min. Fifty μl of wash buffer containing various concentration of MCH are added to each well, and transient changes in [Ca^2+]i evokled bee MCH are monoitored using the FLIPR, or FDSS in 96 shell plates at Ex. 488 nm and Em. 530 nm for 290 second. When antagonist activity of compound is tested, 50 nM of MCH is used.
Use of FLIPR™ and FDSS6000™ can be accomplished by following manufacturer's instruction (Molecular Device Corporation and HAMAMATSU Photonics K.K.).

Where [1] appears, read: class by percent of control at 10^−7 M or by IC50.

Where two headings read alike, the source gives them in different places.

Consider `CC(NC(=O)[C@H]1CC[C@@H](Nc2nc(N(C)C)c3cc(F)c(F)cc3n2)CC1)c1ccc(Br)cc1` (relative stereo) [Example 1008, cis-N-[1-(4-bromophenyl)ethyl]-4-{[4-(dimethylamino)-6,7-difluoroquinazolin-2-yl]amino}cyclohexanecarboxamide], for which the IC50 under setting [1] was in the range of 50 to 200 nM.

With `CN(C)c1nc(N[C@H]2CC[C@@H](CNC(=O)C(O)c3c(F)cccc3F)CC2)nc2ccccc12` (relative stereo) [Example 1092, 2-(2,6-difluorophenyl)-N-[(cis-4-{[4-(dimethylamino)quinazolin-2-yl]amino}cyclohexyl)methyl]-2-hydroxyacetamide], the IC50 under setting [1] is more than 200 nM. As to `CN(C)c1nc(N[C@H]2CC[C@@H](CNC(=O)C(O)c3cccc(F)c3F)CC2)nc2ccccc12` (relative stereo) [Example 1093, 2-(2,3-difluorophenyl)-N-[(cis-4-{[4-(dimethylamino)quinazolin-2-yl]amino}cyclohexyl)methyl]-2-hydroxyacetamide], the IC50 under setting [1] was more than 200 nM.

In the case of `CN(C)c1nc(N[C@H]2CC[C@@H](CNC(=O)C(O)c3cc(F)ccc3F)CC2)nc2ccccc12` (relative stereo) [Example 1094, 2-(2,5-difluorophenyl)-N-[(cis-4-{[4-(dimethylamino)quinazolin-2-yl]amino}cyclohexyl)methyl]-2-hydroxyacetamide], under setting [1], the IC50 was more than 200 nM. On the same count and under the same terms, as for `CN(C)c1nc(N[C@H]2CC[C@@H](CNC(=O)C(O)c3ccc(F)c(F)c3)CC2)nc2ccccc12` (relative stereo) [Example 1095, 2-(3,4-difluorophenyl)-N-[(cis-4-{[4-(dimethylamino)quinazolin-2-yl]amino}cyclohexyl)methyl]-2-hydroxyacetamide], the figure is more than 200 nM; as for `COc1ccc(C(O)C(=O)NC[C@H]2CC[C@@H](Nc3nc(N(C)C)c4ccccc4n3)CC2)cc1` (relative stereo) [Example 1096, N-[(cis-4-{[4-(dimethylamino)quinazolin-2-yl]amino}-cyclohexyl)-methyl]-2-hydroxy-2-(4-methoxyphenyl)acetamide], 50 to 200 nM. Regarding `CN(C)c1nc(N[C@H]2CC[C@@H](CNC(=O)C(O)c3ccc(Br)cc3)CC2)nc2ccccc12` (relative stereo) [Example 1098, 2-(4-bromophenyl)-N-[(cis-4-{[4-(dimethylamino)quinazolin-2-yl]amino}cyclohexyl)methyl]-2-hydroxyacetamide], under setting [1], the IC50 was more than 200 nM.

With `CN(C)c1nc(N[C@H]2CC[C@@H](CNC(=O)C(O)c3ccc(Cl)cc3)CC2)nc2ccccc12` (relative stereo) [Example 1099, 2-(4-chlorophenyl)-N-[(cis-4-{[4-(dimethylamino)quinazolin-2-yl]amino}cyclohexyl)methyl]-2-hydroxyacetamide], under setting [1], the IC50 is more than 200 nM. With `CN(C)c1nc(N[C@H]2CC[C@@H](CNC(=O)C(O)c3cccc(C(F)(F)F)c3)CC2)nc2ccccc12` (relative stereo) [Example 1104, N-[(cis-4-{[4-(dimethylamino)quinazolin-2-yl]amino}-cyclohexyl)-methyl]-2-hydroxy-2-[3-(trifluoromethyl)phenyl]-acetamide], under setting [1], the IC50 was 50 to 200 nM. Consider `COc1ccc(C(O)C(=O)N[C@H]2CC[C@@H](Nc3nc(N(C)C)c4ccccc4n3)CC2)cc1` (relative stereo) [Example 1105, N-(cis-4-{[4-(dimethylamino)quinazolin-2-yl]amino}cyclohexyl)-2-hydroxy-2-(4-methoxyphenyl)acetamide], for which, under setting [1], the IC50 is less than 50 nM. Still for that read-out and setting: in the case of `CN(C)c1nc(N[C@H]2CC[C@@H](NC(=O)C(O)c3ccc(Cl)cc3)CC2)nc2ccccc12` (relative stereo) [Example 1106, 2-(4-chlorophenyl)-N-(cis-4-{[4-(dimethylamino)quinazolin-2-yl]amino}cyclohexyl)-2-hydroxyacetamide] it was 50 to 200 nM; in that of `CN(C)c1nc(N[C@H]2CC[C@@H](NC(=O)C(O)c3ccc(Br)cc3)CC2)nc2ccccc12` (relative stereo) [Example 1107, 2-(4-bromophenyl)-N-(cis-4-{[4-(dimethylamino)quinazolin-2-yl]amino}cyclohexyl)-2-hydroxyacetamide], 50 to 200 nM.

With `CN(C)c1nc(N[C@H]2CC[C@@H](NC(=O)C(O)c3ccc(F)c(F)c3)CC2)nc2ccccc12` (relative stereo) [Example 1108, 2-(3,4-difluorophenyl)-N-(cis-4-{[4-(dimethylamino)quinazolin-2-yl]amino}cyclohexyl)-2-hydroxyacetamide], the IC50 under setting [1] was in the range of 50 to 200 nM. The same measure, in the same setting: in the case of `CN(C)c1nc(N[C@H]2CC[C@@H](NC(=O)C(O)c3cccc(F)c3F)CC2)nc2ccccc12` (relative stereo) [Example 1109, 2-(2,3-difluorophenyl)-N-(cis-4-{[4-(dimethylamino)quinazolin-2-yl]amino}cyclohexyl)-2-hydroxyacetamide] it was more than 200 nM; in that of `CN(C)c1nc(N[C@H]2CC[C@@H](NC(=O)C(O)c3c(F)cccc3F)CC2)nc2ccccc12` (relative stereo) [Example 1110, 2-(2,6-difluorophenyl)-N-(cis-4-{[4-(dimethylamino)quinazolin-2-yl]amino}cyclohexyl)-2-hydroxyacetamide], more than 200 nM.

On to `CN(C)c1nc(N[C@H]2CC[C@@H](NC(=O)C(O)c3cccc(C(F)(F)F)c3)CC2)nc2ccccc12` (relative stereo) [Example 1112, N-(cis-4-{[4-(dimethylamino)quinazolin-2-yl]amino}cyclohexyl)-2-hydroxy-2-[3-(trifluoromethyl)phenyl]acetamide], for which, under setting [1], the IC50 is less than 50 nM. On the same count and under the same terms, as for `COc1cccc(C(O)C(=O)N[C@H]2CC[C@@H](Nc3nc(N(C)C)c4ccccc4n3)CC2)c1` (relative stereo) [Example 1113, N-(cis-4-{[4-(dimethylamino)quinazolin-2-yl]amino}cyclohexyl)-2-hydroxy-2-(3-methoxyphenyl)acetamide], the figure is less than 50 nM; as for `CN(C)c1nc(N[C@H]2CC[C@@H](NC(=O)C(O)c3cc(F)ccc3F)CC2)nc2ccccc12` (relative stereo) [Example 1115, 2-(2,5-difluorophenyl)-N-(cis-4-{[4-(dimethylamino)quinazolin-2-yl]amino}cyclohexyl)-2-hydroxyacetamide], 50 to 200 nM.

Consider `CC(NC(=O)[C@H]1CC[C@@H](Nc2nc(N(C)C)c3ccccc3n2)CC1)c1ccc(F)cc1` (relative stereo) [Example 1138, cis-4-{[4-(dimethylamino)quinazolin-2-yl]amino}-N-[1-(4-fluorophenyl)ethyl]cyclohexanecarboxamide], for which the IC50 under setting [1] was less than 50 nM. In the case of `CC(NC(=O)[C@H]1CC[C@@H](Nc2nc(N(C)C)c3ccccc3n2)CC1)c1ccc(Br)cc1` (relative stereo) [Example 1140, cis-N-[1-(4-bromophenyl)ethyl]-4-{[4-(dimethylamino)quinazolin-2-yl]amino}cyclohexanecarboxamide], the IC50 under setting [1] is less than 50 nM. Consider `CN(C)c1nc(N[C@H]2CC[C@@H](NC(=O)NC34CC5CC(CC(C5)C3)C4)CC2)nc2ccccc12` (relative stereo) [compound 5], for which, under “class by percent of control at 10^-7 M or by IC50”, the IC50 was more than 200 nM.

The values above are taken from US20070010671A1, “Novel quinazoline derivatives and methods of treatment related to the use thereof” (priority 2003, published 2007).
